Reference: US20230357271A1, “MACROCYCLIC COMPOUND” (Asahi Kasei Pharma Corporation, priority 2020, published 2023)

Tests used:
[1] = from CC(C)(C)OC(=O)N1CC[C@H](Nc2cnc3ccc(OCc4ccccc4)c(O)c3c2)C[C@H]1C(=O)NCC(F)CO; ether bond; 14-membered ring; PPh3/DTBAD; toluene; 4.84 mM; 25.0 °C; 1.0 h
[2] = from CC(C)(C)OC(=O)N1CC[C@H](Nc2cnc3ccc(OCc4ccccc4)c(O)c3c2)C[C@H]1C(=O)NCC(F)CO; ether bond; PPh3 / di-tert-butyl azodicarboxylate; toluene; 4.76 mM; 25.0 °C; 1.0 h

CC(C)(C)OC(=O)N1CC[C@H]2C[C@H]1C(=O)NCC(F)COc1c(OCc3ccccc3)ccc3ncc(cc13)N2 (some centres unmarked)
ring closure, isolated yield [1]: 67%
ring closure, yield of all isomers [2]: 67%
